According to patent US20230295234A1, “ANTIMICROBIAL PEPTIDOMIMETICS” (SPEXIS AG, priority 2020, published 2023):
Bridge positions count the residues as written; N and C are the ends. Square brackets hold non-standard residues; d marks the D form. Peptide text beside a SMILES is read from it. Pro(4R-NH2) = N[C@H]1CN[C@H](C(=O)O)C1; Gly(N-2-aminoethyl) = NCCNCC(=O)O; Cha = N[C@@H](CC1CCCCC1)C(=O)O; Gly(N(CH2)3NH2) = NCCCNCC(=O)O; Pen = CC(C)(S)[C@H](N)C(=O)O; dDab = NCC[C@@H](N)C(=O)O; Dab = NCC[C@H](N)C(=O)O

Columns and labels:
[1] = tested on: Escherichia coli ATCC 25922; conditions: ATCC 25922
Summary of the method: (§1)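 Activity is measured against peptides serially diluted two-fold in water with 0.002% final Polysorbate 80. The cells are in cation-adjusted MHII broth at roughly 5×10^5 CFU/mL, prepared from a 0.5 McFarland suspension in 0.85% NaCl.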

[2] = tested on: Klebsiella pneumoniae SSI3010; conditions: SSI3010
Summary of the method: as §1

[3] = tested on: Escherichia coli MCR-1 Af 45; conditions: MCR-1 Af 45
Summary of the method: as §1

[4] = tested on: human red blood cells (hRBC); assay: Hemolysis of human red blood cells; assay type: cell-based; conditions: red cells of human, 1 h
Summary of the method: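 PBS-washed human red blood cells (20% v/v) were incubated with peptide at 200 μg/mL for 1 h at 37 °C with shaking. Supernatant OD was read at 540 nm after 8-fold dilution. Hemolysis is expressed as percent of the water control.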

| SMILES | Escherichia coli ATCC 25922 MIC [1] [µg/mL] | Klebsiella pneumoniae SSI3010 MIC [2] [µg/mL] | Escherichia coli MCR-1 Af 45 MIC [3] [µg/mL] | Hemolysis at 0.2 g/L [4] [%] |
| --- | --- | --- | --- | --- |
| CC[C@H](C)[C@H](NC(=O)[C@@H](NC(=O)[C@@H]1C[C@@H](N)CN1C(=O)[C@@H](NC(=O)[C@@H]1C[C@@H](N)CN1)C(C)C)[C@@H](C)CC)C(=O)N[C@@H](Cc1ccc(O)cc1)C(=O)N[C@@H]1C(=O)N[C@@H](CC(N)=O)C(=O)N[C@@H](CCCNC(=N)N)C(=O)N[C@@H](CCN)C(=O)N[C@@H]([C@@H](C)O)C(=O)N[C@H](CCN)C(=O)N[C@@H](CCCCN)C(=O)N[C@H](C(=O)N[C@@H](CCN)C(=O)N[C@@H](CCCNC(=N)N)C(=O)N[C@@H](CC2CCCCC2)C(=O)O)CSSC1(C)C [Example 20, Pro((4R)NH2)-Val-Pro((4R)NH2)-Ile-Ile-Tyr-Pen-Asn-Arg-Dab-Thr-^DDab-Lys-Cys-Dab-Arg-Cha] (H-[Pro(4R-NH2)]V[Pro(4R-NH2)]IIY[Pen]NR[Dab]T[dDab]KC[Dab]R[Cha]-OH; disulfide 7-14) | ≤0.03125 | 0.125 | ≤0.03125 | 1 |
| CC[C@H](C)[C@H](NC(=O)CN(CCN)C(=O)[C@@H](NC(=O)CNCCN)C(C)C)C(=O)N[C@H](C(=O)N[C@@H](Cc1ccc(O)cc1)C(=O)N[C@@H]1C(=O)N[C@@H](CC(N)=O)C(=O)N[C@@H](CCCNC(=N)N)C(=O)N[C@@H](CCN)C(=O)N[C@@H]([C@@H](C)O)C(=O)N[C@H](CCN)C(=O)N[C@@H](CCCCN)C(=O)N[C@H](C(=O)N[C@@H](CCN)C(=O)N[C@@H](CCCNC(=N)N)C(=O)N[C@@H](CC2CCCCC2)C(=O)O)CSSC1(C)C)[C@@H](C)CC [Example 21, Ndab-Val-Ndab-Ile-Ile-Tyr-Pen-Asn-Arg-Dab-Thr-^DDab-Lys-Cys-Dab-Arg-Cha] (H-[Gly(N-2-aminoethyl)]V[Gly(N-2-aminoethyl)]IIY[Pen]NR[Dab]T[dDab]KC[Dab]R[Cha]-OH; disulfide 7-14) | 0.0625 | 0.25 | ≤0.03125 | 0 |
| CC[C@H](C)[C@H](NC(=O)CN(CCCN)C(=O)[C@@H](NC(=O)CNCCCN)C(C)C)C(=O)N[C@H](C(=O)N[C@@H](Cc1ccc(O)cc1)C(=O)N[C@@H]1C(=O)N[C@@H](CC(N)=O)C(=O)N[C@@H](CCCNC(=N)N)C(=O)N[C@@H](CCN)C(=O)N[C@@H]([C@@H](C)O)C(=O)N[C@H](CCN)C(=O)N[C@@H](CCCCN)C(=O)N[C@H](C(=O)N[C@@H](CCN)C(=O)N[C@@H](CCCNC(=N)N)C(=O)N[C@@H](CC2CCCCC2)C(=O)O)CSSC1(C)C)[C@@H](C)CC [Example 22, Norn-Val-Norn-Ile-Ile-Tyr-Pen-Asn-Arg-Dab-Thr-^DDab-Lys-Cys-Dab-Arg-Cha] (H-[Gly(N(CH2)3NH2)]V[Gly(N(CH2)3NH2)]IIY[Pen]NR[Dab]T[dDab]KC[Dab]R[Cha]-OH; disulfide 7-14) | 0.0625 | 0.0625 | ≤0.03125 | 0 |
| CC[C@H](C)[C@H](NC(=O)[C@@H](NC(=O)[C@@H]1C[C@@H](N)CN1C(=O)[C@@H](NC(=O)[C@@H]1C[C@@H](N)CN1)C(C)C)[C@@H](C)CC)C(=O)N[C@@H](Cc1ccc(O)cc1)C(=O)N[C@@H]1C(=O)N[C@@H](CC(N)=O)C(=O)N[C@@H](CCCNC(=N)N)C(=O)N[C@@H](CCN)C(=O)N[C@@H]([C@@H](C)O)C(=O)N[C@H](CCN)C(=O)N[C@@H](CCCCN)C(=O)N[C@H](C(=O)N[C@@H](CCC(N)=O)C(=O)N[C@@H](CCCNC(=N)N)C(=O)N[C@@H](Cc2ccc(O)cc2)C(=O)O)CSSC1(C)C [Example 23, Pro((4R)NH2)-Val-Pro((4R)NH2)-Ile-Ile-Tyr-Pen-Asn-Arg-Dab-Thr-^DDab-Lys-Cys-Gln-Arg-Tyr] (H-[Pro(4R-NH2)]V[Pro(4R-NH2)]IIY[Pen]NR[Dab]T[dDab]KCQRY-OH; disulfide 7-14) | 0.25 | 0.25 | 0.25 | 0 |
| CC[C@H](C)[C@H](NC(=O)[C@@H](NC(=O)[C@@H]1CCCN1C(=O)[C@@H](NC(=O)[C@@H]1C[C@@H](N)CN1)C(C)C)[C@@H](C)CC)C(=O)N[C@@H](Cc1ccc(O)cc1)C(=O)N[C@@H]1C(=O)N[C@@H](CC(N)=O)C(=O)N[C@@H](CCCNC(=N)N)C(=O)N[C@@H](CCN)C(=O)N[C@@H]([C@@H](C)O)C(=O)N[C@H](CCN)C(=O)N[C@@H](CCCCN)C(=O)N[C@H](C(=O)N[C@@H](CCN)C(=O)N[C@@H](CCCNC(=N)N)C(=O)N[C@@H](Cc2ccc(O)cc2)C(=O)O)CSSC1(C)C [Example 24, Pro(4R)NH2)-Val-Pro-Ile-Ile-Tyr-Pen-Asn-Arg-Dab-Thr-^DDab-Lys-Cys-Dab-Arg-Tyr] (HELM PEPTIDE1{[N[C@H]1CN[C@H](C(=O)[*:2])C1].V.P.I.I.Y.[Pen].N.R.[Dab].T.[NCC[C@@H](N[*:1])C(=O)[*:2]].K.C.[Dab].R.Y}$PEPTIDE1,PEPTIDE1,7:R3-14:R3$$$V2.0) | 0.125 | 0.25 | 0.125 | 0 |
| CC[C@H](C)[C@H](NC(=O)[C@@H](NC(=O)[C@@H]1C[C@@H](N)CN1C(=O)[C@@H](NC(=O)[C@@H]1CCCN1)C(C)C)[C@@H](C)CC)C(=O)N[C@@H](Cc1ccc(O)cc1)C(=O)N[C@@H]1C(=O)N[C@@H](CC(N)=O)C(=O)N[C@@H](CCCNC(=N)N)C(=O)N[C@@H](CCN)C(=O)N[C@@H]([C@@H](C)O)C(=O)N[C@H](CCN)C(=O)N[C@@H](CCCCN)C(=O)N[C@H](C(=O)N[C@@H](CCN)C(=O)N[C@@H](CCCNC(=N)N)C(=O)N[C@@H](Cc2ccc(O)cc2)C(=O)O)CSSC1(C)C [Example 25, Pro-Val-Pro((4R)NH2)-Ile-Ile-Tyr-Pen-Asn-Arg-Dab-Thr-^DDab-Lys-Cys-Dab-Arg-Tyr] (HELM PEPTIDE1{P.V.[N[C@@H]1C[C@@H](C(=O)[*:2])N([*:1])C1].I.I.Y.[Pen].N.R.[Dab].T.[NCC[C@@H](N[*:1])C(=O)[*:2]].K.C.[Dab].R.Y}$PEPTIDE1,PEPTIDE1,7:R3-14:R3$$$V2.0) | ≤0.03125 | 0.0625 | ≤0.03125 | 0 |
| CC[C@H](C)[C@H](NC(=O)[C@@H](NC(=O)[C@@H]1C[C@@H](N)CN1C(=O)[C@@H](NC(=O)[C@@H]1C[C@@H](N)CN1)C(C)C)[C@@H](C)CC)C(=O)N[C@@H](Cc1ccc(O)cc1)C(=O)N[C@@H]1C(=O)N[C@@H](CC(N)=O)C(=O)N[C@@H](CCCNC(=N)N)C(=O)N[C@@H](CCN)C(=O)N[C@@H]([C@@H](C)O)C(=O)N[C@H](CCN)C(=O)N[C@@H](CCCCN)C(=O)N[C@H](C(=O)N[C@@H](CCN)C(=O)N[C@@H](CCCNC(=N)N)C(=O)N[C@@H](Cc2ccc(O)cc2)C(=O)O)CSSC1(C)C [Example 26, Pro((4R)NH2)-Val-Pro((4R)NH2)-Ile-Ile-Tyr-Pen-Asn-Arg-Dab-Thr-^DDab-Lys-Cys-Dab-Arg-Tyr] (H-[Pro(4R-NH2)]V[Pro(4R-NH2)]IIY[Pen]NR[Dab]T[dDab]KC[Dab]RY-OH; disulfide 7-14) | 0.25 | 0.25 | 0.125 | 0 |
| CC[C@H](C)[C@H](NC(=O)[C@@H](NC(=O)[C@@H]1CCCN1C(=O)[C@@H](NC(=O)CNCCN)C(C)C)[C@@H](C)CC)C(=O)N[C@@H](Cc1ccc(O)cc1)C(=O)N[C@@H]1C(=O)N[C@@H](CC(N)=O)C(=O)N[C@@H](CCCNC(=N)N)C(=O)N[C@@H](CCN)C(=O)N[C@@H]([C@@H](C)O)C(=O)N[C@H](CCN)C(=O)N[C@@H](CCCCN)C(=O)N[C@H](C(=O)N[C@@H](CCN)C(=O)N[C@@H](CCCNC(=N)N)C(=O)N[C@@H](Cc2ccc(O)cc2)C(=O)O)CSSC1(C)C [Example 27, Ndab-Val-Pro-Ile-Ile-Tyr-Pen-Asn-Arg-Dab-Thr-^DDab-Lys-Cys-Dab-Arg-Tyr] (HELM PEPTIDE1{[NCCNCC(=O)[*:2]].V.P.I.I.Y.[Pen].N.R.[Dab].T.[NCC[C@@H](N[*:1])C(=O)[*:2]].K.C.[Dab].R.Y}$PEPTIDE1,PEPTIDE1,7:R3-14:R3$$$V2.0) | 0.0625 | 0.125 | 0.0625 | 0 |
| CC[C@H](C)[C@H](NC(=O)CN(CCN)C(=O)[C@@H](NC(=O)[C@@H]1CCCN1)C(C)C)C(=O)N[C@H](C(=O)N[C@@H](Cc1ccc(O)cc1)C(=O)N[C@@H]1C(=O)N[C@@H](CC(N)=O)C(=O)N[C@@H](CCCNC(=N)N)C(=O)N[C@@H](CCN)C(=O)N[C@@H]([C@@H](C)O)C(=O)N[C@H](CCN)C(=O)N[C@@H](CCCCN)C(=O)N[C@H](C(=O)N[C@@H](CCN)C(=O)N[C@@H](CCCNC(=N)N)C(=O)N[C@@H](Cc2ccc(O)cc2)C(=O)O)CSSC1(C)C)[C@@H](C)CC [Example 28, Pro-Val-Ndab-Ile-Ile-Tyr-Pen-Asn-Arg-Dab-Thr-^DDab-Lys-Cys-Dab-Arg-Tyr] (HELM PEPTIDE1{P.V.[NCCN(CC(=O)[*:2])[*:1]].I.I.Y.[Pen].N.R.[Dab].T.[NCC[C@@H](N[*:1])C(=O)[*:2]].K.C.[Dab].R.Y}$PEPTIDE1,PEPTIDE1,7:R3-14:R3$$$V2.0) | 0.25 | 0.125 | 0.125 | 0 |
